Source: ChEMBL document CHEMBL5154740, “Novel Aurora A and Protein Kinase C (α, β1, β2, and θ) Multitarget Inhibitors: Impact of Selenium Atoms on the Potency and Selectivity” (J Med Chem, 2022)

Tests used:
[1] = target: Aurora kinase B (Homo sapiens) (UniProt Q96GD4); test: Inhibition of AURB (unknown origin) at 50 nM by Z'LYTE screening method relative to control
[2] = target: Tyrosine-protein kinase SYK (Homo sapiens) (UniProt P43405); test: Inhibition of SYK (unknown origin) at 50 nM by Z'LYTE screening method relative to control
[3] = target: T1, Protein kinase C zeta type (Homo sapiens) (UniProt Q05513); test: Inhibition of PKCzeta (unknown origin) at 50 nM by Z'LYTE screening method relative to control
T1 sequence (whole entry): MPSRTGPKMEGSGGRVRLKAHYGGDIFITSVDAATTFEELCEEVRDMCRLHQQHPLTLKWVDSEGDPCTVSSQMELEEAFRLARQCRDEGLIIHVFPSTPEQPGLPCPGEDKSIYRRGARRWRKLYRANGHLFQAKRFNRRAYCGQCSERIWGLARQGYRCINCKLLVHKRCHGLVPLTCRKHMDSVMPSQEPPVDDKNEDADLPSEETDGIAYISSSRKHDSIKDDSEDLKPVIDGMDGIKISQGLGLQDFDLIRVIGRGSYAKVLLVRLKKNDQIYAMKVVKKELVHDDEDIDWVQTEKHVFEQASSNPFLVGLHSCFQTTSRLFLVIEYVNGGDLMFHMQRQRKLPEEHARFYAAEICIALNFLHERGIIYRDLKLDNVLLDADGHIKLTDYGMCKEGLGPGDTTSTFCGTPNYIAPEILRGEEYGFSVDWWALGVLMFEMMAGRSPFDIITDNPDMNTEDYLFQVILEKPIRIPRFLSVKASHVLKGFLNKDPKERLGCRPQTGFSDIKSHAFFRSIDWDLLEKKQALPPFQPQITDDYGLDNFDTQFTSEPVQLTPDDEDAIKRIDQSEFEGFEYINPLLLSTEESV

[4] = target: Mitogen-activated protein kinase 11 (Homo sapiens) (UniProt Q15759); test: Inhibition of MAPK11 (unknown origin) at 50 nM by Z'LYTE screening method relative to control
Sequence of Mitogen-activated protein kinase 11 (Homo sapiens) (Q15759 whole entry): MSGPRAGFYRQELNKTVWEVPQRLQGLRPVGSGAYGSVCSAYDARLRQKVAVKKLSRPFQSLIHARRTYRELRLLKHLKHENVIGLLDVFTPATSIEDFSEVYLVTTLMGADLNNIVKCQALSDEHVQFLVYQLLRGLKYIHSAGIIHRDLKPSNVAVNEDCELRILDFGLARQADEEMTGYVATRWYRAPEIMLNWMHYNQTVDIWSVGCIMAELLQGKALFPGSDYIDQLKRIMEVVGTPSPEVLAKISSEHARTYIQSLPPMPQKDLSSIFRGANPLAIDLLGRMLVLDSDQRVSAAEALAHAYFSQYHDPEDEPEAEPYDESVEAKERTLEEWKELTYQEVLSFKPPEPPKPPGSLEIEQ

[5] = target: Hepatocyte growth factor receptor (Homo sapiens) (UniProt P08581); test: Inhibition of cMet (unknown origin) at 50 nM by Z'LYTE screening method relative to control
[6] = target: Proto-oncogene tyrosine-protein kinase Src (Homo sapiens) (UniProt P12931); test: Inhibition of SRC (unknown origin) at 50 nM by Z'LYTE screening method relative to control
[7] = target: Protein kinase C gamma type (Homo sapiens) (UniProt P05129); test: Inhibition of PKC gamma (unknown origin) at 50 nM by Z'LYTE screening method relative to control
[8] = target: Vascular endothelial growth factor receptor 1 (Homo sapiens) (UniProt P17948); test: Inhibition of FLT1/VEGFR1(unknown origin) at 50 nM by Z'LYTE screening method relative to control
Sequence of Vascular endothelial growth factor receptor 1 (Homo sapiens) (P17948 whole entry): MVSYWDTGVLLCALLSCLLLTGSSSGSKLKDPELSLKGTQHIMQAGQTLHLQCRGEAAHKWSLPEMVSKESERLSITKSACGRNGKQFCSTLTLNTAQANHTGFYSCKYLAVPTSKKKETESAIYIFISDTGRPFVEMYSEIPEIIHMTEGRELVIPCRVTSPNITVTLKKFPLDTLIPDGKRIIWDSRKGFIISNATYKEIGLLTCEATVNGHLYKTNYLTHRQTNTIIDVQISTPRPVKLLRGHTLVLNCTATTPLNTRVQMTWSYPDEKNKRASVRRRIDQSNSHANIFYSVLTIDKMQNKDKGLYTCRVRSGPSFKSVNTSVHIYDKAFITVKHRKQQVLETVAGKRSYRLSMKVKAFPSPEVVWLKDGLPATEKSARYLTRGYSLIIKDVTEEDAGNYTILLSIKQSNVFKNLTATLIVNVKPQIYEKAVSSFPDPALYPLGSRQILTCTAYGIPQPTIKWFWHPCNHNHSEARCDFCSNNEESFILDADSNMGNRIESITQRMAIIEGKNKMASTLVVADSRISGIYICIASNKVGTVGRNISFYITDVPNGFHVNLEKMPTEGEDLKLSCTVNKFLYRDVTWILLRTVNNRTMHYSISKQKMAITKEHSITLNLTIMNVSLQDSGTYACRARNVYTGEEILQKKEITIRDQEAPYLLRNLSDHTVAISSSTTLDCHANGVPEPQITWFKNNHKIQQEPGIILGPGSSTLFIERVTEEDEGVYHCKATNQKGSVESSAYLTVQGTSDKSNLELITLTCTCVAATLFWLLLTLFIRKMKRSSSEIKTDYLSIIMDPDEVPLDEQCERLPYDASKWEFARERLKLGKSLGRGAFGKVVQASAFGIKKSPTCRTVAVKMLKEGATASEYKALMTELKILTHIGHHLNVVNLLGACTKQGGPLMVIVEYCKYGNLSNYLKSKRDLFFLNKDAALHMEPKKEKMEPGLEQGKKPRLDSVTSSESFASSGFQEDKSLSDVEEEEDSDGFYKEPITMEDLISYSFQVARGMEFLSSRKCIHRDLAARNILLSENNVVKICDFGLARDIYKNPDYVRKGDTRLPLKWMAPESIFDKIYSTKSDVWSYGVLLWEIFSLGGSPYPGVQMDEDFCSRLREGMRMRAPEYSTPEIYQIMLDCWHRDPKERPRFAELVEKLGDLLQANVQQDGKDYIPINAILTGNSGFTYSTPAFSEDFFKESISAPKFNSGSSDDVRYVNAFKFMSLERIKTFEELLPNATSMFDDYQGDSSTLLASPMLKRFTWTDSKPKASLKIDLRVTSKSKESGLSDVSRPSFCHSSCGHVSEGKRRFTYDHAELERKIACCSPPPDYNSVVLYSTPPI

[9] = target: Proto-oncogene tyrosine-protein kinase receptor Ret (Homo sapiens) (UniProt P07949); test: Inhibition of RET (unknown origin) at 50 nM by Z'LYTE screening method relative to control
Sequence of Proto-oncogene tyrosine-protein kinase receptor Ret (Homo sapiens) (P07949 whole entry): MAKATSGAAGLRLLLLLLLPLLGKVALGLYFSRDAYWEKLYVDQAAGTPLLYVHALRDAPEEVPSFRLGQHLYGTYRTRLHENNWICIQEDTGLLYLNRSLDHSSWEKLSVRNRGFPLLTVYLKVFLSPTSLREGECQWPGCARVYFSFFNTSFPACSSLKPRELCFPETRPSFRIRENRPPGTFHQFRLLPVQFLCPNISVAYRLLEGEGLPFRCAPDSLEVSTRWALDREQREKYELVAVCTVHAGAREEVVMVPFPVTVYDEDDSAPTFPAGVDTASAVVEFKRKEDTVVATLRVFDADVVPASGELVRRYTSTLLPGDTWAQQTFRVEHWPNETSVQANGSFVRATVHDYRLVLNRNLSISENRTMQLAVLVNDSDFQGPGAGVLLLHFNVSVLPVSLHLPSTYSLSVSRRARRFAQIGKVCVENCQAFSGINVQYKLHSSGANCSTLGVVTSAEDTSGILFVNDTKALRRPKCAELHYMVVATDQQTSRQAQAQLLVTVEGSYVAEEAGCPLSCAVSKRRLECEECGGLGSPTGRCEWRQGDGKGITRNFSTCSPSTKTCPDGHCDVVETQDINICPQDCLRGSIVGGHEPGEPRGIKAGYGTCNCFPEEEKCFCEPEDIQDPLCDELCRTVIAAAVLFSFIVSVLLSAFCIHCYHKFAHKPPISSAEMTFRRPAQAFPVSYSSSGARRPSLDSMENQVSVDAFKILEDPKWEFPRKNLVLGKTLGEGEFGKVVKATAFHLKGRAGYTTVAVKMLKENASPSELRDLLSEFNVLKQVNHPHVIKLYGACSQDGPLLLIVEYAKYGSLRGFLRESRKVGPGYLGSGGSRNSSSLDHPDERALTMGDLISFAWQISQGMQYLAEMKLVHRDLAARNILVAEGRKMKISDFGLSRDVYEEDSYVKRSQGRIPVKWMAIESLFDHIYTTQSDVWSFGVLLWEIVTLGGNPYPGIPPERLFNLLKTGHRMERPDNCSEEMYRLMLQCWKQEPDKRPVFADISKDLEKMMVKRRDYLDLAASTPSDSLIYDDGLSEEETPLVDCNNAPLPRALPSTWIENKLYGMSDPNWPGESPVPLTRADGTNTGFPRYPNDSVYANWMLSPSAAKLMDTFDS

[10] = target: Serine/threonine-protein kinase PAK 1 (Homo sapiens) (UniProt Q13153); test: Inhibition of PAK1 (unknown origin) at 50 nM by Z'LYTE screening method relative to control
[11] = target: Tyrosine-protein kinase Yes (Homo sapiens) (UniProt P07947); test: Inhibition of YES1 (unknown origin) at 50 nM by Z'LYTE screening method relative to control
Sequence of Tyrosine-protein kinase Yes (Homo sapiens) (P07947 2-543 limits assumed): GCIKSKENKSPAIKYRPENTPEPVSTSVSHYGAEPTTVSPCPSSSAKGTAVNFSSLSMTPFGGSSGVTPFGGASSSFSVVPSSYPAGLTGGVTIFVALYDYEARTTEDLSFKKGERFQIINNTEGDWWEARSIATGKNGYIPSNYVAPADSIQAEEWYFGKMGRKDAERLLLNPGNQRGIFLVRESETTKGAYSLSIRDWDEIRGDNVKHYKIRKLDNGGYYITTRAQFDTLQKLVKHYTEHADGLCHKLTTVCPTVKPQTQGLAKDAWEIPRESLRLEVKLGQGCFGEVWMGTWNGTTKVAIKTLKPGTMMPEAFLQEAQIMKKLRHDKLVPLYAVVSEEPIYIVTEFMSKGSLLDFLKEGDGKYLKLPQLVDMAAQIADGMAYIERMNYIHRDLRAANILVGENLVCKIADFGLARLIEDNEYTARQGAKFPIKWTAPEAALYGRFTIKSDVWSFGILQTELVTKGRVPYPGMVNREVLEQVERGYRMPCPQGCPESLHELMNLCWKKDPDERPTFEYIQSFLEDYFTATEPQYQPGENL

[12] = target: Focal adhesion kinase 1 (Homo sapiens) (UniProt Q05397); test: Inhibition of FAK (unknown origin) at 50 nM by Z'LYTE screening method relative to control
[13] = target: Ribosomal protein S6 kinase beta-1 (Homo sapiens) (UniProt P23443); test: Inhibition of p70S6K (unknown origin) at 50 nM by Z'LYTE screening method relative to control
[14] = target: Mitogen-activated protein kinase 8 (Homo sapiens) (UniProt P45983); test: Inhibition of MAPK8 (unknown origin) at 50 nM by Z'LYTE screening method relative to control
[15] = target: T2, Protein kinase C epsilon type (Homo sapiens) (UniProt Q02156); test: Inhibition of PKCepsilon (unknown origin) at 50 nM by Z'LYTE screening method relative to control
T2 sequence (whole entry): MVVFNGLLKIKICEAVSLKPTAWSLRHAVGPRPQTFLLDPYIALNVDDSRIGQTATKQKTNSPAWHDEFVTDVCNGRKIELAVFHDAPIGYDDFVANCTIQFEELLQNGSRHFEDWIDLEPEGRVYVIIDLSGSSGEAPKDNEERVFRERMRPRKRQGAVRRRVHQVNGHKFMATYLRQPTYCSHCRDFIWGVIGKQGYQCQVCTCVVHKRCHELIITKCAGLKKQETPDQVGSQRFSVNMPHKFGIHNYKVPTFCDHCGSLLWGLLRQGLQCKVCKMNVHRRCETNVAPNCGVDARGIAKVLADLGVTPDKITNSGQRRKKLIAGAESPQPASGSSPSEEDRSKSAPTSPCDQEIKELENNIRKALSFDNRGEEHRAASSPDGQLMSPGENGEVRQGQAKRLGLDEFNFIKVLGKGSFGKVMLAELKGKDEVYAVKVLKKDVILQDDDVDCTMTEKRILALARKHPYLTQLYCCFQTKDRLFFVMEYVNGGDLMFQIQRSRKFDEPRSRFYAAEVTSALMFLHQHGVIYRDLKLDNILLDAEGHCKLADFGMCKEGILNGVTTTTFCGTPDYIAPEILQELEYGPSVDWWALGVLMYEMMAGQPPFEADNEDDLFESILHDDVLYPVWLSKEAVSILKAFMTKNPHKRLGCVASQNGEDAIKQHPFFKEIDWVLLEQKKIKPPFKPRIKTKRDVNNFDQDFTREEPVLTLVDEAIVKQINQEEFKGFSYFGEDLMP

[16] = target: Protein kinase C delta type (Homo sapiens) (UniProt Q05655); test: Inhibition of PKCdelta (unknown origin) at 50 nM by Z'LYTE screening method relative to control
Sequence of Protein kinase C delta type (Homo sapiens) (Q05655 whole entry, looked up): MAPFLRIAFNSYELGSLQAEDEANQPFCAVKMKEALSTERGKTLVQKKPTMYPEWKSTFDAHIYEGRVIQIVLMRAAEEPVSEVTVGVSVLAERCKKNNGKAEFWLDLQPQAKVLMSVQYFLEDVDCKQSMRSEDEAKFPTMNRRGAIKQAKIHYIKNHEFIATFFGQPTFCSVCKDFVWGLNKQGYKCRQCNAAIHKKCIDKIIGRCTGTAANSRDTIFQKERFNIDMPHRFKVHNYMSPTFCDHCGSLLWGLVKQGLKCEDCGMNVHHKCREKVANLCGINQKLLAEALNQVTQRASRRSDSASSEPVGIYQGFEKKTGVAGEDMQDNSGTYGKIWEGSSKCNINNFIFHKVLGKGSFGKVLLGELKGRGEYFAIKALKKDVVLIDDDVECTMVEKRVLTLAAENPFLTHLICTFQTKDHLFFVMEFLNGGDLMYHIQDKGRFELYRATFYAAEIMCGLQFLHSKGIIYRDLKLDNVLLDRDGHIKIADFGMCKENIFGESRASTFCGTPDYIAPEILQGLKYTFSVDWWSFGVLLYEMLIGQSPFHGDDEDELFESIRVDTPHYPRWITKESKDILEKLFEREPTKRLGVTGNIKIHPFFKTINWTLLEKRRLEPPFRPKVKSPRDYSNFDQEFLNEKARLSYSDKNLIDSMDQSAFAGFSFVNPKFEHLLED

[17] = target: PI3-kinase p110-alpha/p85-alpha (Homo sapiens) (UniProt P27986+P42336); test: Inhibition of p110alpha/p85alpha (unknown origin) at 50 nM by Z'LYTE screening method relative to control; assay type: protein-complex assay

Sequence of Aurora kinase B (Homo sapiens) (Q96GD4 whole entry): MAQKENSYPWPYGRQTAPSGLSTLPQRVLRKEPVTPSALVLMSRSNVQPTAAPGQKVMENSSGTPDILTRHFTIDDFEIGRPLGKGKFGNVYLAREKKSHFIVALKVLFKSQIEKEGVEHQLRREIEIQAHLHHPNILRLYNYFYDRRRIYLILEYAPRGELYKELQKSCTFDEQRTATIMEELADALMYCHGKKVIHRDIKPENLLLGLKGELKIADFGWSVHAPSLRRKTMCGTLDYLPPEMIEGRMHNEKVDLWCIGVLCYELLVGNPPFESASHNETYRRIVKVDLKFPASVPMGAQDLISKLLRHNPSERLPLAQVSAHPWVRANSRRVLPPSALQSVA

inhibition [1]: 6%
inhibition [2]: 4%
inhibition [3]: 9%
inhibition [4]: 3%
inhibition [5]: 14%
inhibition [6]: 0%
inhibition [7]: 6%
inhibition [8]: 1%
inhibition [9]: 1%
inhibition [10]: 14%
inhibition [11]: 15%
inhibition [12]: 4%
inhibition [13]: 0%
inhibition [14]: 0%
inhibition [15]: 8%
inhibition [16]: 6%
inhibition [17]: 0%
Compound: CCN(CC)CCCC(C)Nc1nc(-n2[se]c3ccccc3c2=O)nc2[nH]cnc12 (configuration not stated)
